Literature values as cited in patent publication EP3735959A1, “COMPOSITIONS TO REDUCE HYPERPIGMENTATION” (InnovativeHealth Group SL, priority 2019, dated 2020).

Tested on: human epidermal melanocytes

For `C=C(C)[C@@H]1CCC(C)=C[C@H]1c1c(O)cc(CCCCC)cc1O` [CBD, Cannabidiol], the melanogenesis (6 µM, by increasing the expression of MITF (reference 6)) is given as “induced melanogenesis” and the cellular tyrosinase activity (human epidermal melanocytes, concentration dependent (reference 6)) is given as “significantly increased”.
